These results are taken from US11319324B2, “Pyrazolo-pyrrolo-pyrimidine-dione derivatives as P2X3 inhibitors” (Bayer Aktiengesellschaft, priority 2017, dated 2022).

Holding throughout (format): cell-based
One test has as its target T1, human P2X2/3 receptors (Homo sapiens, UniProt P56373+Q9UBL9).
T1 construct: expressed in transfected cells; host or cells: human astrocytoma 1321N1 (1312N1 [sic])
T1 sequence (P56373 1-397): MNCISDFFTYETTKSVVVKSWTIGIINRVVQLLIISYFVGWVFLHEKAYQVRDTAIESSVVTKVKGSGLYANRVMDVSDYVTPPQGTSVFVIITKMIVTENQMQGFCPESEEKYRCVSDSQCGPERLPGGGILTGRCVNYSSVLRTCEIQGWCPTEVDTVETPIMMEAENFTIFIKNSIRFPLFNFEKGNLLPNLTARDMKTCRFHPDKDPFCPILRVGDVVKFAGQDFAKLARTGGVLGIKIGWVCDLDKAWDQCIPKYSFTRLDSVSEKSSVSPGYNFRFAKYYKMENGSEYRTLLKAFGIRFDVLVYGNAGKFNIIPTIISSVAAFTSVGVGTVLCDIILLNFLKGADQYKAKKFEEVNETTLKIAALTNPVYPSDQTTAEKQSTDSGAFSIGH
T1 sequence (Q9UBL9 1-471): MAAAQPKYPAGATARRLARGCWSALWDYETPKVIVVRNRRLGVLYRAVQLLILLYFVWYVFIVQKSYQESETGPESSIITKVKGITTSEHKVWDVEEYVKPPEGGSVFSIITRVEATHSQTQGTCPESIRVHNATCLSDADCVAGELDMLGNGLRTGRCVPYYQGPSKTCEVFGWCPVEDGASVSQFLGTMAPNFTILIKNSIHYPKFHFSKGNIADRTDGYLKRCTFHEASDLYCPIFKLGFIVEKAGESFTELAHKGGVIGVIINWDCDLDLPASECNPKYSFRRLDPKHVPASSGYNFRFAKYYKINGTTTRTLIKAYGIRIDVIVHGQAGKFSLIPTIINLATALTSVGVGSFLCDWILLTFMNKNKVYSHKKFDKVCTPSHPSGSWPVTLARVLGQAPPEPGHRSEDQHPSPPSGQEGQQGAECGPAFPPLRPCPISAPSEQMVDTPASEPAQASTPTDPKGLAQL
In words: Intracellular calcium measurement, antagonist activity at human P2X2/3 receptors (hP2X23 1321N1), Fluo8. The note with it: for IC50: column 4); 1321N1 cells, human P2X2/3, Fluo8, agonist ATP at EC50; read-out: 4) hP2X2/3 IC50 [nM] (1321N1); for hP2X23/hP2X3* Selectivity (1321N1): ratio of column 4) hP2X2/3 to column 3) hP2X3, 1321N1. Put shortly:
(§1)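 Inhibition of ATP-triggered Ca2+ transients is measured in 1321N1 cells expressing P2X3 homotrimers or P2X2/3 heterotrimers.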
A general note: Calcium flux is commonly read through the fluorescence of an indicator in the cells.

The target of test [1] is T2, human P2X3 receptor (Homo sapiens, UniProt P56373).
T2 sequence (P56373 1-397): T1 sequence (P56373 1-397)
Kind of test: Intracellular calcium measurement, antagonist activity at human P2X3 receptors (hP2X3 1321N1), Fluo8. On the set-up: expressed in transfected cells; host or cells: human astrocytoma 1321N1 (1312N1 [sic]). The following applies: column 3); 1321N1 cells, human P2X3, Fluo8, agonist ATP at EC50. Put shortly:
as §1

The target of test [2] is T2, human P2X3 receptor. Kind of test: Intracellular calcium measurement to assess antagonist activity at human P2X3 receptors (hP2X3 CHO), photina luminescence. On the set-up: expressed in transfected cells; host or cells: Chinese hamster ovary (CHO) cells. The note with it: column 2), CHO cells, agonist α,β-methylene-ATP at EC50. Put shortly:
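CHO cells stably expressing human P2X3 and mitochondrial photina, plated the day before at 30 °C, then loaded 3 h at 37 °C in 2 mM Ca-tyrode buffer with 5 μg/ml coelenterazine. Agonist-evoked calcium luminescence read immediately; inhibition seen as signal decrease.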

Some results are limits rather than exact numbers.

As for `COC[C@H](C)N1Cc2c(n(CC(=O)Nc3ccc(F)cn3)c3cc(C(=O)N(C)CC4CC4)nn3c2=O)C1=O` [Example 195], the results for the IC50 on human P2X2/3 receptors, at human P2X3 receptor [1] and at human P2X3 receptor [2] were 8900 nM, 22 nM and 20 nM, respectively. The “hP2X23/hP2X3* Selectivity (1321N1)” value on human P2X2/3 receptors is on record as 399.

On to `COC[C@H](C)N1Cc2c(n(CC(=O)Nc3ccc(F)cn3)c3cc(C(=O)N(C)C4CC4)nn3c2=O)C1=O` [Example 196], for which the IC50 at human P2X2/3 receptors is 4150 nM; on human P2X3 receptor [1], 15 nM; at human P2X3 receptor [2] it was 10 nM. Moreover, at human P2X2/3 receptors, the “hP2X23/hP2X3* Selectivity (1321N1)” value is 277.

With `COC[C@H](C)N1Cc2c(n(CC(=O)Nc3ccc(F)cn3)c3cc(C(=O)NCC(F)F)nn3c2=O)C1=O` [Example 197], the IC50 on human P2X2/3 receptors worked out at 9800 nM; at human P2X3 receptor [1] it was 34 nM; at human P2X3 receptor [2], 19 nM. On human P2X2/3 receptors, the “hP2X23/hP2X3* Selectivity (1321N1)” value is on record as 291.

`COC[C@H](C)N1Cc2c(n(CC(=O)Nc3ccc(F)cn3)c3cc(C(=O)N4CCCCC4)nn3c2=O)C1=O` [Example 198]: the IC50 at human P2X2/3 receptors came to 9300 nM; on human P2X3 receptor [1], 16 nM; at human P2X3 receptor [2] it was 35 nM. The “hP2X23/hP2X3* Selectivity (1321N1)” value on human P2X2/3 receptors amounted to 581.

For the compound `CC(C)N1Cc2c(n(CC(=O)Nc3ccc(F)cn3)c3cc(C(=O)N(C)CC4CC4)nn3c2=O)C1=O` [Example 199], the values for the IC50 on human P2X2/3 receptors, at human P2X3 receptor [1] and on human P2X3 receptor [2] were 7000 nM, 5 nM and 11 nM, respectively. Also, the “hP2X23/hP2X3* Selectivity (1321N1)” value at human P2X2/3 receptors is listed as 1321.

`CC(C)N1Cc2c(n(CC(=O)Nc3ccc(F)cn3)c3cc(C(=O)Nc4ccccc4F)nn3c2=O)C1=O` [Example 200]: the IC50 at human P2X2/3 receptors was 3950 nM; on human P2X3 receptor [1] it was 38 nM; at human P2X3 receptor [2], 44 nM. In addition, on human P2X2/3 receptors, the “hP2X23/hP2X3* Selectivity (1321N1)” value turned out to be 105.

For the compound `CC(C)N1Cc2c(n(CC(=O)Nc3ccc(F)cn3)c3cc(C(=O)N4CCC4)nn3c2=O)C1=O` [Example 223, 2-[2-(azetidin-1-ylcarbonyl)-5,8-dioxo-6-(propan-2-yl)-5,6,7,8-tetrahydro-4H-pyrazolo[1,5-a]pyrrolo[3,4-d]pyrimidin-4-yl]-N-(5-fluoropyridin-2-yl)acetamide], the IC50 came out at 8920 nM at human P2X2/3 receptors, 56 nM on human P2X3 receptor [1] and 23 nM at human P2X3 receptor [2]. For the same compound, at human P2X2/3 receptors, the “hP2X23/hP2X3* Selectivity (1321N1)” value is 158.

On to `CC(C)N1Cc2c(n(CC(=O)Nc3ccc(F)cn3)c3cc(C(=O)N4CCOCC4)nn3c2=O)C1=O` [Example 225, N-(5-fluoropyridin-2-yl)-2-[2-(morpholin-4-ylcarbonyl)-5,8-dioxo-6-(propan-2-yl)-5,6,7,8-tetrahydro-4H-pyrazolo[1,5-a]pyrrolo[3,4-d]pyrimidin-4-yl]acetamide], for which the IC50 at human P2X2/3 receptors was above 32000 nM; at human P2X3 receptor [1], 67 nM; on human P2X3 receptor [2], 37 nM. The “hP2X23/hP2X3* Selectivity (1321N1)” value on human P2X2/3 receptors is given as above 481.

For the compound `CC(C)N1Cc2c(n(CC(=O)Nc3ccc(F)cn3)c3cc(C4CCN(C(=O)OC(C)(C)C)CC4)nn3c2=O)C1=O` [Example 227, tert-butyl 4-[4-{2-[(5-fluoropyridin-2-yl)amino]-2-oxoethyl}-5,8-dioxo-6-(propan-2-yl)-5,6,7,8-tetrahydro-4H-pyrazolo[1,5-a]pyrrolo[3,4-d]pyrimidin-2-yl]piperidine-1-carboxylate], the IC50 turned out to be 9300 nM on human P2X2/3 receptors, 71 nM at human P2X3 receptor [1] and 24 nM on human P2X3 receptor [2]. Also, the “hP2X23/hP2X3* Selectivity (1321N1)” value at human P2X2/3 receptors turned out to be 132.

For `CC(C)N1Cc2c(n(CC(=O)Nc3ccc(F)cn3)c3cc(C4CCS(=O)(=O)CC4)nn3c2=O)C1=O` [Example 229, 2-[2-(1,1-dioxo-1lambda^6-thian-4-yl)-5,8-dioxo-6-(propan-2-yl)-5,6,7,8-tetrahydro-4H-pyrazolo[1,5-a]pyrrolo[3,4-d]pyrimidin-4-yl]-N-(5-fluoropyridin-2-yl)acetamide], the IC50 on human P2X2/3 receptors was above 32000 nM; on human P2X3 receptor [1], 27 nM; at human P2X3 receptor [2] it was 39 nM. In addition, the “hP2X23/hP2X3* Selectivity (1321N1)” value at human P2X2/3 receptors is on record as above 1185.
